Test results as given in PubChem BioAssay (NCI).
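Five compound concentrations were applied to cells in 96-well plates for 48 hours; endpoints were derived by simple linear interpolation of the resulting dose-response curve. GI50 marks 50% less growth. Definition used: TGI = concentration required for complete inhibition of growth.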

Columns and labels:
Assay in all cases: NCI tumour cell line growth inhibition, 48 h
[1] = system: SNB-75 CNS
[2] = system: SNB-19 CNS
[3] = system: CCRF-CEM leukemia
[4] = system: NCI/ADR-RES ovarian
[5] = system: HCT-15 colon
[6] = system: MDA-MB-435
[7] = system: RPMI-8226 leukemia
[8] = system: UACC-257 melanoma
[9] = system: SK-MEL-2 melanoma
[10] = system: SK-MEL-28 melanoma

| SMILES | TGI [1] | TGI [2] | TGI [3] | TGI [4] | TGI [5] | TGI [6] | TGI [7] | TGI [8] | TGI [9] | TGI [10] | GI50 [1] | GI50 [2] | GI50 [3] | GI50 [4] | GI50 [5] | GI50 [6] | GI50 [7] | GI50 [8] | GI50 [9] | GI50 [10] |
| --- | --- | --- | --- | --- | --- | --- | --- | --- | --- | --- | --- | --- | --- | --- | --- | --- | --- | --- | --- | --- |
| COc1cc(CCNC2=CC(=O)c3cccnc3C2=O)ccc1O | 2.06 µM | 4.04 µM | 25.9 µM | 11.5 µM | 2.58 µM | 0.317 µM | 5.2 µM | 2.18 µM | 3.46 µM | 2.56 µM |  |  |  |  |  |  |  |  |  |  |
| N#Cc1ccc(OC(=O)c2ccc(N=C(N)N)cc2)cc1 | > 100 µM | > 100 µM | 54.8 µM | > 100 µM | > 100 µM | > 100 µM | > 100 µM | > 100 µM | > 100 µM | > 100 µM |  |  |  |  |  |  |  |  |  |  |
| [N-]=[N+]=C(C(=O)OCC#CCOC(=O)C(=[N+]=[N-])S(=O)(=O)c1ccccc1)S(=O)(=O)c1ccccc1 | > 10 µM | > 10 µM | > 10 µM | > 10 µM | > 10 µM | > 10 µM | > 10 µM | > 10 µM | > 10 µM | > 10 µM |  |  |  |  |  |  |  |  |  |  |
| COC(=O)c1c(O)ccc2c1c1c(n2Cc2ccc(OC)cc2)C(=O)c2ccccc2C1=O | 85.8 µM | > 100 µM | 0.296 µM | 37.2 µM | 16.7 µM | 22.3 µM | 1.9 µM | 94.3 µM | 25.6 µM | 37.4 µM |  |  |  |  |  |  |  |  |  |  |
| CC1(C)C2CCC1(C)C(N/C(=C(/C(Cl)=C(Cl)Cl)[N+](=O)[O-])n1nnc3ccccc31)C2 (stereo not given) | 70 µM | 55.7 µM | > 100 µM | 97.6 µM | 93.4 µM | 46.2 µM | > 100 µM | > 100 µM | 61 µM | > 100 µM |  |  |  |  |  |  |  |  |  |  |
| COc1ccc(C[C@H]2NC(=O)/C=C/C[C@@H]([C@H](C)[C@H]3O[C@@H]3c3ccccc3)OC(=O)[C@H](CC(C)C)OC(=O)[C@H](C)CNC2=O)cc1 | > 9.19e-05 µM | > 0.0001 µM | > 6.99e-05 µM | > 0.0001 µM | > 0.0001 µM | 1.45e-05 µM | > 0.0001 µM | > 0.0001 µM | > 0.0001 µM | > 0.0001 µM |  |  |  |  |  |  |  |  |  |  |
| O=C(O)CS(=O)c1ccc2c3c(cccc13)C(=O)c1ccccc1-2 (stereo not given) | > 100 µM | > 100 µM | > 100 µM | > 100 µM | > 100 µM | > 100 µM | > 100 µM | > 100 µM | > 100 µM | > 100 µM |  |  |  |  |  |  |  |  |  |  |
| COc1cc2c(cc1OC)C1=Cc3ccc(OC)c(OC)c3C(C#N)N1CC2 (stereo not given) | 33.8 µM | > 100 µM | > 100 µM | > 100 µM | > 100 µM | 82.3 µM | 76.3 µM | 47.4 µM | 43.4 µM | > 100 µM |  |  |  |  |  |  |  |  |  |  |
| O=C1OC(C2Cc3ccccc3C2=O)c2ccccc21 (stereo not given) | > 100 µM | > 100 µM | > 100 µM | > 100 µM | > 100 µM | > 100 µM | > 100 µM | > 100 µM | > 100 µM | > 100 µM |  |  |  |  |  |  |  |  |  |  |
| O=C(O)C(F)(F)C(F)(F)C(F)(F)C(F)(F)C(=O)O | > 100 µM | > 100 µM | > 100 µM | > 100 µM | > 100 µM | > 100 µM | > 100 µM | > 100 µM | > 100 µM | > 100 µM |  |  |  |  |  |  |  |  |  |  |
| CN1[C@@H]2CCCC[C@H]2N(C)P1(=O)C(O)/C=C/c1ccccc1 (stereo not given in full) | > 100 µM | > 100 µM | > 100 µM | > 100 µM | > 100 µM | > 100 µM | > 100 µM | > 100 µM | > 100 µM | > 100 µM |  |  |  |  |  |  |  |  |  |  |
| O=C(Nc1ccccc1)c1cc(S(=O)(=O)Nc2n[nH]c(=O)[nH]2)c(SSc2cc(Cl)c(C(=O)Nc3ccccc3)cc2S(=O)(=O)Nc2n[nH]c(=O)[nH]2)cc1Cl | > 100 µM | > 100 µM | > 100 µM | > 100 µM | > 100 µM | > 100 µM | > 100 µM | > 100 µM | > 100 µM | > 100 µM |  |  |  |  |  |  |  |  |  |  |
| Cc1ccc(S(=O)(=O)N(CC(O)c2ccccc2)c2ccccc2F)cc1 (stereo not given) | 30.3 µM | 37.5 µM | 64.5 µM | 35.1 µM | 33 µM | 32.9 µM | 39 µM | 16.1 µM | 32.1 µM | 33.1 µM |  |  |  |  |  |  |  |  |  |  |
| COc1ccc2c(c1)c(=O)c1c(NCCCN(C)CCCNc3ccc4c(=O)n(CCN(C)C)c(=O)n5c6ccc(OC)cc6c(=O)c3c45)ccc3c(=O)n(CCN(C)C)c(=O)n2c31 | 0.216 µM | 2.17 µM | 0.049 µM | 2.26 µM | 0.617 µM | 0.756 µM | 0.176 µM | 2.11 µM | 2.44 µM | 2.32 µM |  |  |  |  |  |  |  |  |  |  |
| O=C1c2n[nH]nc2C(=O)c2n[nH]nc21 | > 100 µM | > 100 µM | > 100 µM | > 100 µM | > 100 µM | > 100 µM | > 100 µM | > 100 µM | > 100 µM | > 100 µM |  |  |  |  |  |  |  |  |  |  |
| Cc1ccccc1C(=O)C#Cc1cn(C2CC(O)C(CO)O2)c(=O)[nH]c1=O (stereo not given) | > 100 µM | > 100 µM | 67.3 µM | > 100 µM | > 100 µM | > 100 µM | > 100 µM | > 100 µM | > 100 µM | > 100 µM |  |  |  |  |  |  |  |  |  |  |
| O=C1c2cc([N+](=O)[O-])cnc2S(=O)(=O)N1c1ccc(Br)cc1 | > 100 µM | > 100 µM | > 100 µM | > 100 µM | > 100 µM | > 100 µM | > 100 µM | > 100 µM | > 100 µM | > 100 µM |  |  |  |  |  |  |  |  |  |  |
| COc1ccc(OC)c(C(=O)/C=C/c2cc(O)c(O)cc2F)c1 | 28.2 µM | > 35 µM | 15.7 µM | > 89.5 µM | 13.5 µM | 0.99 µM | 7.83 µM | 18.3 µM | 9.51 µM | 35.8 µM |  |  |  |  |  |  |  |  |  |  |
| COc1ccc(C2c3cc4c(cc3OC(NNC(N)=O)C2C)OCO4)cc1 (stereo not given) | > 33.3 µM | > 100 µM | > 29.4 µM | > 100 µM | 36.3 µM | 8.2 µM | 20.2 µM | > 100 µM | > 100 µM | > 100 µM |  |  |  |  |  |  |  |  |  |  |
| O=C(Nc1ccc(-n2cc(-c3ccncc3)c(-c3ccc(O)c(Cl)c3)n2)cc1)c1cc(Cl)cc(Cl)c1 | > 32.5 µM | > 32.5 µM | > 32.5 µM | > 32.5 µM | > 32.5 µM | > 32.5 µM | 6.18 µM | > 32.5 µM | 2.94 µM | > 32.5 µM | 1.35 µM | 2.95 µM | 1.45 µM | 1.92 µM | 0.908 µM | 1.87 µM | 1.07 µM | 13.8 µM | 0.899 µM | 3.19 µM |
| CC(=O)c1cc2c(s1)C(=O)c1scc(C(C)=O)c1C2=O | 2.65 µM | 2.42 µM | 0.59 µM | 0.737 µM | 1.07 µM | 0.496 µM | 1.08 µM | 0.544 µM | 1.3 µM | 1.59 µM |  |  |  |  |  |  |  |  |  |  |
| NC(Cc1ccccc1)=NCC(=O)O | > 100 µM | > 100 µM | > 100 µM | > 100 µM | > 100 µM | > 100 µM | > 100 µM | > 100 µM | > 100 µM | > 100 µM |  |  |  |  |  |  |  |  |  |  |
| O=c1[nH]c(=S)c2cc3c(=S)[nH]c(=O)n(CCC(c4ccccc4)(c4ccccc4)c4ccccc4)c3nc2n1CCC(c1ccccc1)(c1ccccc1)c1ccccc1 | > 100 µM | > 100 µM | 27.7 µM | > 100 µM | > 100 µM | > 100 µM | > 100 µM | > 100 µM | > 100 µM | > 100 µM |  |  |  |  |  |  |  |  |  |  |
| O=C(O)CCC(C(=O)O)N1C(=O)c2ccccc2C1=O (stereo not given) | > 100 µM | > 100 µM | > 100 µM | > 100 µM | > 100 µM | > 100 µM | > 100 µM | > 100 µM | > 100 µM | > 100 µM |  |  |  |  |  |  |  |  |  |  |
| Cc1c(C)c2c(c(N)c1C#N)C(=O)N(OS(=O)(=O)c1ccccc1)C2=O | > 100 µM | > 100 µM | > 100 µM | 58.9 µM | 46 µM | 58.8 µM | 37.8 µM | 68 µM | > 100 µM | 67.3 µM |  |  |  |  |  |  |  |  |  |  |
| O=c1[nH]nc(Cc2ccccc2)n1/N=C/c1ccc([N+](=O)[O-])o1 | 15 µM | 38.1 µM | > 100 µM | 13.1 µM | > 100 µM | 3.8 µM | 21.2 µM | 19.7 µM | 16 µM | 17.6 µM |  |  |  |  |  |  |  |  |  |  |
| c1nncn1C12C3C4C5C3C1C5C42 (stereo not given) | > 100 µM | > 100 µM | > 100 µM | > 100 µM | > 100 µM | > 100 µM | > 100 µM | > 100 µM | > 100 µM | > 100 µM |  |  |  |  |  |  |  |  |  |  |
| COC(=O)c1ccc(CCC2=CC(=O)C(Br)=CC2=O)cc1 | 26.9 µM | 29.2 µM | 0.887 µM | 43.8 µM | 27.6 µM | 31.2 µM | 49.3 µM | 29 µM | 31.9 µM | 31.1 µM |  |  |  |  |  |  |  |  |  |  |
| CC(C)=CC(C)C(C(O)CCC1(c2ccoc2)OCCO1)S(=O)(=O)c1ccccc1 (stereo not given) | > 100 µM | > 100 µM | > 100 µM | > 100 µM | > 100 µM | > 100 µM | > 100 µM | > 100 µM | > 100 µM | > 100 µM |  |  |  |  |  |  |  |  |  |  |
